Drawing on patent US12692249B2, “WDR5 inhibitors and modulators” (Vanderbilt University, priority 2019, dated 2026), this text covers Ki and GI50 for 15 compounds.

For one assay, the target named is WDR5 (Homo sapiens, UniProt P61964). Kind of assay: TR-FRET competition binding assay, displacement of 10mer-Thr-FAM MLL peptide probe from His-tagged WDR5. The settings on record: WDR5-His tag (residues 24-334) 2 nM; 10mer-Thr-FAM 150 nM; 60 min, room temperature; read-out: Ki for Inhibition of WDR5 by TR-FRET assay.
Assay [1] concerns MV4:11 human cancer cell lines. The experiment in a line: Cellular viability / anti-proliferative assay, CellTiter-Glo, 5 day protocol. The format is cell-based. The settings on record: Homo sapiens, MV4-11, 120 h, MV4:11 cells; 5 day incubation; CellTiter-Glo; mean of at least two replicates; read-out: GI50 on cellular proliferation of MV4:11 human cancer cell lines. Put shortly: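 MV-4-11 cells in IMDM with 10% FBS, 200 cells/well, exposed 5 days to 22 two-fold dilutions from 30 μM, final DMSO 0.3%. Viability read by CellTiter-Glo luminescence; GI50 from sigmoidal dose-response fit, mean of at least two replicates.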
For orientation: Cellular ATP, detected with luciferase, serves as a proxy for viable cell number.

A word on the Ki: it is a dissociation constant, usually derived from enzyme kinetics or from competition with a known ligand. Take `COc1cc(C#N)c2nc(C)cc(N3CCc4c(cc(Cn5ccnc5)cc4-c4cn(C)nc4C(F)(F)F)C3=O)c2c1` [Example 175, 4-(7-((1H-Imidazol-1-yl)methyl)-5-(1-methyl-3-(trifluoromethyl)-1H-pyrazol-4-yl)-1-oxo-3,4-dihydroisoquinolin-2(1H)-yl)-6-methoxy-2-methylquinoline-8-carbonitrile]: the Ki at WDR5 was < 0.02 nM. Besides, the GI50 in assay [1] was < 20 nM.
On to `CCc1cc(OC(F)(F)F)c2nccc(N3CCc4c(cc(Cn5ccnc5)cc4-c4cn(C)nc4C(F)(F)F)C3=O)c2c1` [Example 176, 7-((1H-imidazol-1-yl)methyl)-2-(6-ethyl-8-(trifluoromethoxy)quinolin-4-yl)-5-(1-methyl-3-(trifluoromethyl)-1H-pyrazol-4-yl)-3,4-dihydroisoquinolin-1(2H)-one], for which the Ki on WDR5 was < 0.02 nM. Further, in assay [1], the GI50 was found to be 33 nM.
For `CCc1cc(COC2CNC2)c2nccc(N3CCc4c(cc(Cn5ccnc5)cc4-c4cn(C)nc4C(F)(F)F)C3=O)c2c1` [Example 179, 7-((1H-Imidazol-1-yl)methyl)-2-(8-((azetidin-3-yloxy)methyl)-6-ethylquinolin-4-yl)-5-(1-methyl-3-(trifluoromethyl)-1H-pyrazol-4-yl)-3,4-dihydroisoquinolin-1(2H)-one] the same measures were < 0.02 nM and 33 nM.
In the same order, the values of `COc1cc(C(=O)NS(C)(=O)=O)c2nc(C)cc(N3CCc4c(cc(Cn5ccnc5)cc4-c4cn(C)nc4C(F)(F)F)C3=O)c2c1` [Example 181, 4-(7-((1H-Imidazol-1-yl)methyl)-5-(1-methyl-3-(trifluoromethyl)-1H-pyrazol-4-yl)-1-oxo-3,4-dihydroisoquinolin-2(1H)-yl)-6-methoxy-2-methyl-N-(methylsulfonyl)quinoline-8-carboxamide] are 0.04 nM and 856 nM.
In the same order, the values of `CCc1cc(COC2CCOCC2)c2nccc(N3CCc4c(cc(Cn5ccnc5)cc4-c4cn(C)nc4C(F)(F)F)C3=O)c2c1` [Example 182, 7-((1H-Imidazol-1-yl)methyl)-2-(6-ethyl-8-(((tetrahydro-2H-pyran-4-yl)oxy)methyl)quinolin-4-yl)-5-(1-methyl-3-(trifluoromethyl)-1H-pyrazol-4-yl)-3,4-dihydroisoquinolin-1(2H)-one] are < 0.02 nM and < 20 nM.
`CNC(=O)c1cc(OC)cc2c(N3CCc4c(cc(Cn5ccnc5)cc4-c4cn(C)nc4C(F)(F)F)C3=O)cc(C)nc12` [Example 183, 4-(7-((1H-Imidazol-1-yl)methyl)-5-(1-methyl-3-(trifluoromethyl)-1H-pyrazol-4-yl)-1-oxo-3,4-dihydroisoquinolin-2(1H)-yl)-6-methoxy-N,2-dimethylquinoline-8-carboxamide]: the Ki on WDR5 is < 0.02 nM. For the same compound, the GI50 in assay [1] is < 20 nM.
In the same order, the values of `COc1cc(C(=N)NO)c2nc(C)cc(N3CCc4c(cc(Cn5ccnc5)cc4-c4cn(C)nc4C(F)(F)F)C3=O)c2c1` [Example 184, 4-(7-((1H-Imidazol-1-yl)methyl)-5-(1-methyl-3-(trifluoromethyl)-1H-pyrazol-4-yl)-1-oxo-3,4-dihydroisoquinolin-2(1H)-yl)-N-hydroxy-6-methoxy-2-methylquinoline-8-carboximidamide] are < 0.02 nM and 21 nM.
For `CCc1cc(C(=O)NC2CCN(C)CC2)c2nccc(N3CCc4c(cc(Cn5ccnc5)cc4-c4cn(C)nc4C(F)(F)F)C3=O)c2c1` [Example 186, 4-(7-((1H-Imidazol-1-yl)methyl)-5-(1-methyl-3-(trifluoromethyl)-1H-pyrazol-4-yl)-1-oxo-3,4-dihydroisoquinolin-2(1H)-yl)-6-ethyl-N-(1-methylpiperidin-4-yl)quinoline-8-carboxamide] the same measures were < 0.02 nM and < 20 nM.
In the same order, the values of `CCc1cc(COc2ccncc2)c2nccc(N3CCc4c(cc(Cn5ccnc5)cc4-c4cn(C)nc4C(F)(F)F)C3=O)c2c1` [Example 187, 7-((1H-Imidazol-1-yl)methyl)-2-(6-ethyl-8-((pyridin-4-yloxy)methyl)quinolin-4-yl)-5-(1-methyl-3-(trifluoromethyl)-1H-pyrazol-4-yl)-3,4-dihydroisoquinolin-1(2H)-one] are < 0.02 nM and 43 nM.
With `CCc1cc(COC)c2nccc(N3CCc4c(cc(Cn5ccnc5)cc4-c4cn(C)nc4C(F)(F)F)C3=O)c2c1` [Example 188, 7-((1H-Imidazol-1-yl)methyl)-2-(6-ethyl-8-(methoxymethyl)quinolin-4-yl)-5-(1-methyl-3-(trifluoromethyl)-1H-pyrazol-4-yl)-3,4-dihydroisoquinolin-1(2H)-one], on WDR5, the Ki is < 0.02 nM. In assay [1], the GI50 was < 20 nM.
Take `COc1cc(C(=O)NC2CCN(C)CC2)c2nc(C)cc(N3CCc4c(cc(Cn5ccnc5)cc4-c4cn(C)nc4C(F)(F)F)C3=O)c2c1` [Example 189, 4-(7-((1H-Imidazol-1-yl)methyl)-5-(1-methyl-3-(trifluoromethyl)-1H-pyrazol-4-yl)-1-oxo-3,4-dihydroisoquinolin-2(1H)-yl)-6-methoxy-2-methyl-N-(1-methylpiperidin-4-yl)quinoline-8-carboxamide]: on WDR5, the Ki is < 0.02 nM. The GI50 in assay [1] was < 20 nM.
Turning to `CCc1cc(C(=O)NCCOC)c2nc(C)cc(N3CCc4c(cc(Cn5ccnc5)cc4-c4cn(C)nc4C(F)(F)F)C3=O)c2c1` [Example 190, 4-(7-((1H-Imidazol-1-yl)methyl)-5-(1-methyl-3-(trifluoromethyl)-1H-pyrazol-4-yl)-1-oxo-3,4-dihydroisoquinolin-2(1H)-yl)-6-ethyl-N-(2-methoxyethyl)-2-methylquinoline-8-carboxamide], at WDR5, the Ki is < 0.02 nM. Also, in assay [1], the GI50 is < 20 nM.
For `CCc1cc(COC2COC2)c2nccc(N3CCc4c(cc(Cn5ccnc5)cc4-c4cn(C)nc4C(F)(F)F)C3=O)c2c1` [Example 191, 7-((1H-Imidazol-1-yl)methyl)-2-(6-ethyl-8-((oxetan-3-yloxy)methyl)quinolin-4-yl)-5-(1-methyl-3-(trifluoromethyl)-1H-pyrazol-4-yl)-3,4-dihydroisoquinolin-1(2H)-one] the same measures were < 0.02 nM and < 20 nM.
For `CCc1cc(C(=O)NCCN(C)C)c2nc(C)cc(N3CCc4c(cc(Cn5ccnc5)cc4-c4cn(C)nc4C(F)(F)F)C3=O)c2c1` [Example 194, 4-(7-((1H-Imidazol-1-yl)methyl)-5-(1-methyl-3-(trifluoromethyl)-1H-pyrazol-4-yl)-1-oxo-3,4-dihydroisoquinolin-2(1H)-yl)-N-(2-(dimethylamino)ethyl)-6-ethyl-2-methylquinoline-8-carboxamide] the same measures were < 0.02 nM and < 20 nM.
`COc1cc(N2CCC(OC)CC2)c2nc(C)cc(N3CCc4c(cc(Cn5ccnc5)cc4-c4cn(C)nc4C(F)(F)F)C3=O)c2c1` [Example 195, 7-((1H-Imidazol-1-yl)methyl)-2-(6-methoxy-8-(4-methoxypiperidin-1-yl)-2-methylquinolin-4-yl)-5-(1-methyl-3-(trifluoromethyl)-1H-pyrazol-4-yl)-3,4-dihydroisoquinolin-1(2H)-one]: the Ki at WDR5 is < 0.02 nM. Also, the GI50 in assay [1] was < 20 nM.
